Like-named read-outs stand apart in the source and are kept apart here.

Data set [1] can be described thus: Solubility in natural deep eutectic solvents (saturated solutions, UV-VIS). The format is physicochemical. Here is the method:
As an extension of these studies, we have investigated the solubility of six insecticidal metabolites in a variety of NADES. The solvent selection framework consisted of the following steps: • Preliminary solvent screening: a pre-selected set of 20 NADES was used as a starting point to identify and rank potential NADES candidates (Table 3). Selection constraints were imposed on important properties such as viscosity and stability.
• Secondary screening: solubility tests were performed to determine the best solvent for each of the metabolites. Saturated solutions, generated by adding an excess amount of each compound to different NADES, were kept under constant stirring (1100 rpm) for 24 h at 50 °C. The 20 candidates were ranked in decreasing order of solvent power. • Solubility verification: For the verification of solubilities, samples were centrifuged for 5 min at 2000 rpm and subsequently diluted suitably with methanol for spectrophotometric analysis (UV-1800 UV–VIS spectrophotometer, Shimadzu Europe GmbH, Duisburg, Germany).

Data set [2] deals with Frankliniella occidentalis. Further details: method as in Leiss et al. (2013). Conditions: 25% of natural plant concentrations (0.53 mg/g); ref Leiss et al. (2013); cited from earlier work.
Another data set relates to Acyrthosiphon pisum. Also on record: method as in Goławska and Łukasik (2012). As to conditions: 100 µg cm^−3; ref Goławska and Łukasik (2012); cited from earlier work.
The test system of the next data set is Spodoptera exigua. Further details: method as in Cipollini et al. (2008). As to conditions: individual compound in diet plugs; ref Cipollini et al. (2008); cited from earlier work.
The test system of another data set is Acanthoscelides obtectus. Further details: method as in Regnault-Roger et al. (2004). Conditions: adults, ref Regnault-Roger et al. (2004), cited from earlier work.
Another data set deals with Spilarctia obliqua. Further details: method as in Tripathi et al. (2011). Conditions: 250 µg/g, compared with azadirachtin; ref Tripathi et al. (2011); cited from earlier work.
The test system of data set [3] is Sitobion avanae. Also on record: method as in Leszczynski et al. (1995). Conditions: ref Leszczynski et al. (1995), cited from earlier work.
For a further data set, the system named is Anopheles arabiensis. Also on record: method as in Narayanaswamy et al. (2014). As to conditions: 100 µg/ml; ref Narayanaswamy et al. (2014); cited from earlier work.
The test system of the next data set is Coptotermes formosanus. Further details: method as in Adfa et al. (2010). As to conditions: 5 µmol; ref Adfa et al. (2010); cited from earlier work.
Another data set deals with Plutella xylostella. Also on record: method as in Peterson et al. (2003). Conditions: ref Peterson et al. (2003); cited from earlier work.
The subject of a further data set is Zygogramma exclamationis. Further details: method as in Olson and Roseland (1991). Conditions: topical application of 100 µg/ml; ref Olson and Roseland (1991); cited from earlier work.
The test system of the next data set is Sitodiplosis mosellana. Also on record: method as in Ding et al. (2000). Conditions: constitutive levels exceeding 0.35 µg/g fresh weight (1.57 µg/g dry weight); ref Ding et al. (2000); cited from earlier work.
In another data set the test system is Choristoneura fumiferana. Also on record: method as in Grant and Langevin (2002). Conditions: ref Grant and Langevin (2002), cited from earlier work.
The next data set has as its system Dalbulus maidis. Further details: method as in Dowd and Vega (1996). As to conditions: adults, 400 ppm, in vitro bioassay; ref Dowd and Vega (1996); cited from earlier work.
Data set [4] relates to Sitobion avanae. Further details: method as in Chrzanowski et al. (2012). Conditions: ref Chrzanowski et al. (2012); cited from earlier work.
A further data set has as its system Delia radicum. Further details: method as in Jones et al. (1988). Conditions: 10 mM in buffered solution; ref Jones et al. (1988); cited from earlier work.
In a further data set the test system is Liriomyza trifolii. Further details: method as in Kashiwagi et al. (2005). As to conditions: 4.90 µg/cm^2; ref Kashiwagi et al. (2005); cited from earlier work.
The test system of another data set is Helicoverpa armigera. Further details: method as in Joshi et al. (2014). Conditions: ref Joshi et al. (2014), cited from earlier work.
Another data set relates to Helicoverpa zea. Also on record: method as in Summers and Felton (1994). As to conditions: 4 mM, ref Summers and Felton (1994), cited from earlier work.
The subject of another data set is Etiella zinckenella. Further details: method as in Hattori et al. (1992). Conditions: 0.5 mg; ref Hattori et al. (1992); cited from earlier work.

In data set [1] (1,2-propanediol: choline chloride: water (1:1:1), water 7.71%, 24 h at 50 °C, mean ± SD, n = 3), `O=c1cc(-c2ccc(O)c(O)c2)oc2cc(O)cc(O)c12` [Luteolin] returned a Solubility of 13.08 ± 0.86 mg/g. Besides, the “Solubility enhancement with NADES compared to aqueous solubility” value in [1] (NADES of Table 4 versus water (Table 2)) is listed as greater than 95 fold. In addition, the “Mortality of first instar larvae” value in data set [2] is “Significant increase in mortality of first instar larvae at 25% of natural plant concentrations (0.53 mg/g)”. Also, in the data set with Acyrthosiphon pisum, the “Probing and feeding deterrence” value was “Probing and feeding deterrent at 100 µg cm^−3”. Also, in the data set with Spodoptera exigua, the Anti-herbivory activity entry is reported as “no anti-herbivory activity was observed” and the Feeding result is “marginally stimulating feeding”.

`O=c1cc(-c2ccc(O)c(O)c2)oc2cc(O[C@@H]3O[C@H](CO)[C@@H](O)[C@H](O)[C@H]3O)cc(O)c12` [Luteolin-7-glucoside]: the “Knockdown effect (mobility and mortality)” value (shortened to “Knockdown effect”) in the data set on Acanthoscelides obtectus (in vitro bioassay) was “Toxin: knockdown effect: reduced mobility and increased mortality”.

Take `COc1cc2ccc(=O)oc2cc1O` [Scopoletin]: in the data set on Spilarctia obliqua, the “Antifeedant and growth inhibitory activity” value was “Antifeedant and growth inhibitor. At 250 µg/g deterrence and growth inhibition was similar to that of azadirachtin”. The Phloem sap ingestion result with Sitobion avanae [3] (2.5 mM) was “Reduced ingestion of phloem sap at 2.5 mM”. Besides, the Repellent activity result with Anopheles arabiensis was “Repellent activity at 100 µg/ml”. The “Termicidal and antifeedant effects” value in the data set with Coptotermes formosanus was “Termicidal and antifeedant effects at 5 µmol”. In the data set with Plutella xylostella, the “Antibiosis (growth inhibitor), concentration in diet” value is greater than 2500 µg/g diet and the LD50 was roughly 8300 µg/mL. In the data set on Zygogramma exclamationis, the “Feeding deterrence (preference)” value was “Phytoalexin: feeding deterrent. Topical application of 100 µg/ml reduces preference”.

For the compound `COc1cc(/C=C/C(=O)O)ccc1O` [Ferulic acid], the “Knockdown effect” value in the data set with Acanthoscelides obtectus (day 8, in vitro bioassay) is “Knockdown effect: reduced mobility and increased mortality of adults at day 8 (in vitro bioassay)”. For the same compound, in the data set on Sitodiplosis mosellana, the “Mortality of newly hatched larvae” value was “Constitutive levels exceeding 0.35 µg/g fresh weight (1.57 µg/g dry weight) increased mortality of newly hatched larvae”. Besides, in the data set with Sitobion avanae [3] (2.5 mM), the Sieve element salvation result is “Reduced sieve element salvation at 2.5 mM”. In addition, the Oviposition deterrence entry in the data set with Choristoneura fumiferana (7.8 nmol/cm^2, dual choice bioassay) is “Oviposition deterrent 7.8 nmol/cm^2 (dual choice bioassay)”. Moreover, the Antifeedant activity entry with Dalbulus maidis is listed as “Antifeedant activity in adults at 400 ppm (in vitro bioassay)”. In the data set on Sitobion avanae [4], the “Reproductive period and daily fecundity” value was “Prolonged reproductive period and reduced daily fecundity”.

Consider `COc1cc(/C=C/C(=O)O)cc(OC)c1O` [Sinapic acid], for which, in [1], the Solubility was 21.59 ± 0.24 mg/g and the “Solubility enhancement with NADES compared to aqueous solubility” value is greater than 34 fold. Moreover, in the data set on Delia radicum, the “Reduction of number of eggs (oviposition deterrent)” value was “Oviposition deterrent; 10 mM in buffered solution reduced number of eggs by 60–70%”. Moreover, the “Mortality of first instar larvae” value in data set [2] is recorded as “Significant increase in mortality of first instar larvae at 25% of natural plant concentrations (0.53 mg/g)”. For the same compound, the Phloem sap ingestion result in the data set with Sitobion avanae [3] (2.5 mM) was “Reduced ingestion of phloem sap at 2.5 mM”. Also, the Oviposition deterrence entry in the data set with Choristoneura fumiferana (78.6 nmol/cm^2) is listed as “Oviposition deterrent at 78.6 nmol/cm^2”.

Turning to `O=c1cc(-c2ccc(O)c(O)c2)oc2cc(O[C@@H]3O[C@H](CO)[C@@H](O)[C@H](O)[C@H]3O[C@@H]3OCC(O)(CO)[C@H]3O)cc(O)c12` (stereo partly drawn) [Luteolin 7-O-β -D-apiofranosyl-(1→2)-β-D-glucopyranoside], the Ovipositional deterrence entry in the data set on Liriomyza trifolii is listed as “Ovipositional deterrent at 4.90 µg/cm^2”.

For `O=C(O)/C=C/c1ccc(O)c(O)c1` [Caffeic acid], the “Knockdown effect” value with Acanthoscelides obtectus (in vitro bioassay) is “Knockdown effect: reduced mobility and increased mortality in adults (in vitro bioassay)”. Further, the Phloem sap ingestion result in the data set with Sitobion avanae [3] (2.5 mM) was “Reduction of phloem sap ingestion at 2.5 mM”. Further, in the data set with Helicoverpa armigera (range of 50–200 ppm), the “Body weight and survival” value was “Body weight and survival significantly reduced”. The Mode of action entry in the data set on Helicoverpa armigera is reported as “Protease inhibitor”. Moreover, the “Prooxidant effect on midgut proteins” value with Helicoverpa zea (chronic exposure) is “oxidative stress in midgut proteins”. The “Development rate, survivorship and pupal weight” value in the data set on Helicoverpa zea is “Development rate, survivorship and pupal weight negatively influenced”.

Turning to `O=C(O)C=Cc1ccc(O)cc1` [p-Coumaric acid], the Oviposition deterrence entry in the data set on Etiella zinckenella is listed as “Oviposition deterrent at 0.5 mg”. The Phloem sap ingestion entry in the data set with Sitobion avanae [3] (concentration not given) is listed as “Reduction ingestion of phloem sap”. For the same compound, the Antifeedant activity entry in the data set on Dalbulus maidis is recorded as “Antifeedant activity in adults at 400 ppm (in vitro bioassay)”.

The values above are taken from PMC5674125, “Towards eco-friendly crop protection: natural deep eutectic solvents and defensive secondary metabolites” (Phytochemistry Reviews, 2017).
